This note sets out measurements from ChEMBL document CHEMBL4483862, “Open-source discovery of chemical leads for next-generation chemoprotective antimalarials” (2018).

This test concerns Plasmodium berghei. The experiment in a line: Luciferase/luciferin-expressing antifolate-resistant parasites were used to infect a culture of HepG2 cells that were pre-incubated with compounds. Infected hepatocytes emit light due to the luciferase reaction. Assay results are presented as the percent inhibition of light emission compared to control. […]. The class given is functional. Particulars: sporozoite; for IC90: read-out: LUCIFERASE INFECTION ASSAY - IC90.

pIC50: −log10 of the molar value. Where only a bound is given, the exact number is not on record here.

One may read the pIC50 as −log10 of the IC50, conventionally taken in molar units. By IC90 is commonly meant the point of the concentration-response curve where the effect stands at 90%. For `Cc1sc2ncnc(N3CCC(C(=O)N(CC(C)C)c4nc5ccccc5s4)CC3)c2c1C`, the IC90 was greater than 10 µM. For the same compound, the pIC50 (PBLUC_HILL_SLOPE 1.15, PBLUC_R_SQUARED 0.711, read-out: LUCIFERASE INFECTION ASSAY - IC50) is 5.39.
With `O/N=C(\c1ccc(Cl)cc1)c1cc2ccccc2o1`, the IC90 was greater than 12.1 µM. In addition, the pIC50 (PBLUC_HILL_SLOPE 1.16, PBLUC_R_SQUARED 0.26, read-out: LUCIFERASE INFECTION ASSAY - IC50) was 5.20.
For `OCc1ccc(-c2cn3c(-c4ccc5c(c4)OCO5)cnc3cn2)cc1`, the IC90 was greater than 9.56 µM. In addition, the pIC50 (PBLUC_HILL_SLOPE 1.17, PBLUC_R_SQUARED 0.649, read-out: LUCIFERASE INFECTION ASSAY - IC50) was 5.41.
Turning to `COc1ccccc1-c1nc(-c2ccc(CCCNC(C)=O)cc2)cs1`, the IC90 was greater than 10 µM. Besides, where the note is “PBLUC_HILL_SLOPE 1.19, PBLUC_R_SQUARED 0.431, read-out: LUCIFERASE INFECTION ASSAY - IC50”, the pIC50 is 5.27.
On to `CSc1nnc(-c2ccc(C(C)(C)C)cc2)n1-c1ccc(Cl)cc1`, for which the concentration for an effect of 90% (IC90) is greater than 9.22 µM. The pIC50 (PBLUC_HILL_SLOPE 1.19, PBLUC_R_SQUARED 0.789, read-out: LUCIFERASE INFECTION ASSAY - IC50) is less than 5.04.
Regarding `COC(=O)CSCCc1nc(-c2ccc(C(F)(F)F)cc2)cs1`, the concentration for an effect of 90% (IC90) is 8.8 µM. Further, the pIC50 (PBLUC_HILL_SLOPE 1.19, PBLUC_R_SQUARED 0.68, read-out: LUCIFERASE INFECTION ASSAY - IC50) is 5.86.
Regarding `CC1(C)CC(=O)C=C(Nc2ccc(Oc3ccccc3)cc2)C1`, the IC90 is greater than 10.7 µM. For the same compound, the pIC50 (PBLUC_HILL_SLOPE 1.19, PBLUC_R_SQUARED 0.428, read-out: LUCIFERASE INFECTION ASSAY - IC50) was 5.66.
`O=C(N/N=C/c1ccc(F)cc1)c1ccc[n+]([O-])c1`: the IC90 was greater than 10 µM. Further, the pIC50 (PBLUC_HILL_SLOPE 1.11, PBLUC_R_SQUARED 0.152, read-out: LUCIFERASE INFECTION ASSAY - IC50) was 5.24.
`CN=C1NN=C(c2cc(C)n(-c3ccc(OC)cc3)c2C)CS1`: the 90% effect concentration (IC90) was greater than 10 µM. The pIC50 (PBLUC_HILL_SLOPE 1.15, PBLUC_R_SQUARED 0.417, read-out: LUCIFERASE INFECTION ASSAY - IC50) is less than 5.00.
On to `CCCc1cc(NCc2cccnc2)n2nc(C)c(-c3ccccc3)c2n1`, for which the IC90 is greater than 9.23 µM. Also, under “PBLUC_HILL_SLOPE 1.13, PBLUC_R_SQUARED 0.661, read-out: LUCIFERASE INFECTION ASSAY - IC50”, the pIC50 is 5.50.
For the compound `COc1ccc(C2CC(=O)c3c(n[nH]c3C)C2)cc1` (configuration not stated), the IC90 was greater than 12.9 µM. Also, the pIC50 (PBLUC_HILL_SLOPE 1.11, PBLUC_R_SQUARED 0.36, read-out: LUCIFERASE INFECTION ASSAY - IC50) is 5.35.
With `Nc1c(C(=O)Nc2cccc(F)c2)sc2nc3c(cc12)N1CCC3CC1`, the IC90 is greater than 8.96 µM. The pIC50 (PBLUC_HILL_SLOPE 1.17, PBLUC_R_SQUARED 0.5, read-out: LUCIFERASE INFECTION ASSAY - IC50) is 5.70.
For `CCOC(=O)c1c(NC(=O)CNc2ccccc2CN(C)C2CCCCC2)sc(CC)c1C`, the IC90 was greater than 10 µM. The negative-log IC50 (pIC50) (PBLUC_HILL_SLOPE 1.16, PBLUC_R_SQUARED 0.382, read-out: LUCIFERASE INFECTION ASSAY - IC50) is 5.51.
`Cc1ccc(Sc2ccc(/C=C/c3cc(C(=O)O)c4ccccc4n3)cc2[N+](=O)[O-])cc1`: the IC90 is greater than 10 µM. Also, the pIC50 (PBLUC_HILL_SLOPE 1.12, PBLUC_R_SQUARED 0.368, read-out: LUCIFERASE INFECTION ASSAY - IC50) was 5.05.
On to `COc1ccc(-c2nn(-c3ccccc3)cc2/C=C/C(=O)NCCc2cn3ccccc3n2)cc1OC`, for which the IC90 is greater than 10 µM. The pIC50 (PBLUC_HILL_SLOPE 1.11, PBLUC_R_SQUARED 0.206, read-out: LUCIFERASE INFECTION ASSAY - IC50) is less than 5.00.
`CCc1c2c(nc3sc(C(=O)Nc4nsc(-c5ccccc5)n4)c(N)c13)CC(C)(C)CC2=O`: the IC90 was greater than 10 µM. Also, under “PBLUC_HILL_SLOPE 1.15, PBLUC_R_SQUARED 0.361, read-out: LUCIFERASE INFECTION ASSAY - IC50”, the pIC50 was 5.20.
As for `O=C(NCCNc1ccc2ccccc2c1)c1cc2ccccc2nc1Cl`, the IC90 was greater than 10 µM. Moreover, for the setting “PBLUC_HILL_SLOPE 1.17, 2.29, PBLUC_R_SQUARED 0.341, 0.725, read-out: LUCIFERASE INFECTION ASSAY - IC50”, the pIC50 is 5.23.
With `Cc1ccc(CNC(=O)c2ccc(/C=C3\SC(=O)NC3=O)cc2)cc1`, the IC90 was greater than 10 µM. The pIC50 (PBLUC_HILL_SLOPE 1.15, PBLUC_R_SQUARED 0.802, read-out: LUCIFERASE INFECTION ASSAY - IC50) is 5.60.
In the case of `O=C(NC1CC1)c1ccc(-c2cnc3cnc(-c4cccs4)cn23)cc1`, the IC90 is greater than 9.16 µM. Under “PBLUC_HILL_SLOPE 1.19, PBLUC_R_SQUARED 0.184, read-out: LUCIFERASE INFECTION ASSAY - IC50”, the pIC50 was less than 5.04.
Regarding `N=C1c2ccccc2CN1NC(=O)CCCOc1ccc(Cl)cc1Cl`, the IC90 was 7.29 µM. Also, the pIC50 (PBLUC_HILL_SLOPE 1.16, PBLUC_R_SQUARED 0.64, read-out: LUCIFERASE INFECTION ASSAY - IC50) was 5.96.
`Fc1ccc(-c2nc3ccccc3n2-c2cc(-c3ccccc3)n[nH]2)cc1`: the IC90 was found to be 5.27 µM. In addition, the pIC50 (PBLUC_HILL_SLOPE 1.15, 2.25, PBLUC_R_SQUARED 0.601, 0.956, read-out: LUCIFERASE INFECTION ASSAY - IC50) is 5.80.
`COc1cc(OC)cc(-c2cc3c(Nc4ccc5c(c4)OCO5)nccc3[nH]2)c1`: the IC90 was 6.69 µM. The pIC50 (PBLUC_HILL_SLOPE 1.19, PBLUC_R_SQUARED 0.67, read-out: LUCIFERASE INFECTION ASSAY - IC50) is 5.97.
On to `CCC(NC(=O)NCc1ccccc1S(=O)(=O)N1CCCCC1)c1ccc(Cl)cc1` (configuration not stated), for which the IC90 is greater than 10 µM. Further, the pIC50 (PBLUC_HILL_SLOPE 1.14, PBLUC_R_SQUARED 0.117, read-out: LUCIFERASE INFECTION ASSAY - IC50) is less than 5.00.
As to `CCCn1c(NC(=O)Cc2csc(NC(=O)c3ccco3)n2)nc2ccccc21`, the IC90 is greater than 10 µM. For the setting “PBLUC_HILL_SLOPE 1.19, PBLUC_R_SQUARED 0.0275, read-out: LUCIFERASE INFECTION ASSAY - IC50”, the pIC50 is less than 5.00.
Consider `CCNC(=S)N/N=C/c1cc(Cl)cc(Cl)c1O`, for which the IC90 is greater than 11.3 µM. For the same compound, the pIC50 (PBLUC_HILL_SLOPE 1.17, PBLUC_R_SQUARED 0.411, read-out: LUCIFERASE INFECTION ASSAY - IC50) is less than 4.95.
For `OC1CCN(c2ccnc3c(-c4ccc5ccccc5c4)cnn23)CC1`, the IC90 amounted to 0.96 µM. Besides, the pIC50 (PBLUC_HILL_SLOPE 1.1, PBLUC_R_SQUARED 0.73, read-out: LUCIFERASE INFECTION ASSAY - IC50) was 6.89.
For `OC[C@H]1O[C@@H](c2nc(-c3nc(-c4ccc5[nH]ccc5c4)no3)cs2)[C@H](O)[C@@H]1O`, the IC90 is 1.55 µM. Moreover, the pIC50 (PBLUC_HILL_SLOPE 1.16, PBLUC_R_SQUARED 0.583, read-out: LUCIFERASE INFECTION ASSAY - IC50) was 6.63.
Regarding `COCCOc1ccc(C(F)(F)F)cc1NC(=O)c1ccc2ncsc2c1`, the IC90 is greater than 10 µM. Further, the pIC50 (PBLUC_HILL_SLOPE 1.17, PBLUC_R_SQUARED 0.0937, read-out: LUCIFERASE INFECTION ASSAY - IC50) was 5.07.
`COCCNC(=O)C1CCN(C(C(=O)c2c[nH]c3ccccc23)c2ccccc2)CC1` (configuration not stated): the IC90 worked out at 4.42 µM. For the same compound, under “PBLUC_HILL_SLOPE 1.13, PBLUC_R_SQUARED 0.77, read-out: LUCIFERASE INFECTION ASSAY - IC50”, the pIC50 is 6.20.
Consider `N#Cc1cc(NS(=O)(=O)c2c[nH]c(C(=O)N3CCCC3)c2)ccc1Cl`, for which the IC90 was greater than 10 µM. Moreover, under “PBLUC_HILL_SLOPE 1.14, PBLUC_R_SQUARED 0.85, read-out: LUCIFERASE INFECTION ASSAY - IC50”, the pIC50 is 5.27.
For `Cc1nn(-c2ccccc2Cl)c2sc(C(=O)Nc3ccc(N4CCN(C)CC4)nc3)cc12`, the IC90 is greater than 10 µM. Also, the pIC50 (PBLUC_HILL_SLOPE 1.19, PBLUC_R_SQUARED 0.233, read-out: LUCIFERASE INFECTION ASSAY - IC50) is 5.24.
As to `Cc1cc(/C=N/Nc2ccccc2[N+](=O)[O-])c(C)n1CC(C)C`, the IC90 was 8.36 µM. Also, the pIC50 (PBLUC_HILL_SLOPE 1.12, PBLUC_R_SQUARED 0.805, read-out: LUCIFERASE INFECTION ASSAY - IC50) was 5.93.
For `Cn1c(NCc2ccccc2)nc2cnc(Nc3cccc(C(F)(F)F)c3)cc21`, the IC90 is greater than 10 µM. Further, the pIC50 (PBLUC_HILL_SLOPE 1.17, PBLUC_R_SQUARED 0.452, read-out: LUCIFERASE INFECTION ASSAY - IC50) was 5.39.
Take `O=S(=O)(Nc1cccc(C(F)(F)F)c1)c1c(F)c(Br)cc(F)c1Br`: the IC90 was greater than 6.67 µM. Besides, the pIC50 (PBLUC_HILL_SLOPE 1.15, PBLUC_R_SQUARED 0.311, read-out: LUCIFERASE INFECTION ASSAY - IC50) is less than 5.18.
Turning to `CN(C)C(=O)c1cccc(-c2cn3c(-c4ccc(C(C)(C)C)cc4)cnc3cn2)c1`, the IC90 is greater than 8.28 µM. Under “PBLUC_HILL_SLOPE 1.19, PBLUC_R_SQUARED 0.783, read-out: LUCIFERASE INFECTION ASSAY - IC50”, the pIC50 is 5.64.
Turning to `O=C(Nc1nc2ccccc2[nH]1)c1cc2ccccc2cc1O`, the IC90 was greater than 10 µM. For the same compound, the pIC50 (PBLUC_HILL_SLOPE 1.13, 0.699, PBLUC_R_SQUARED 0.533, 0.940, read-out: LUCIFERASE INFECTION ASSAY - IC50) is 5.71.
